Patent US20230250066A1, “HERBICIDAL CINNOLINE DERIVATIVES” (SYNGENTA CROP PROTECTION AG, priority 2020, published 2023)

Columns and labels:
Format in all cases: in vivo
[1] = tested on: Amaranthus retoflexus (AMARE); test: Pre-emergence herbicidal test; conditions: 1000 g/ha, evaluated after 13 days
Setaria faberi (SETFA) [2] = test: Pre-emergence herbicidal test; conditions: 1000 g/ha, evaluated after 13 days
[3] = tested on: Echinochloa crus-galli (ECHCG); test: Pre-emergence herbicidal test; conditions: 1000 g/ha, evaluated after 13 days
[4] = tested on: Ipomoea hederacea (IPOHE); test: Pre-emergence herbicidal test; conditions: 1000 g/ha, evaluated after 13 days
[5] = tested on: Abutilon theophrasti (ABUTH); test: Pre-emergence herbicidal test; conditions: 1000 g/ha, evaluated after 13 days
Zea mays (ZEAMX) [6] = test: Pre-emergence herbicidal test; conditions: 1000 g/ha, evaluated after 13 days
[7] = tested on: Abutilon theophrasti (ABUTH); test: Post-emergence herbicidal test; conditions: 1000 g/ha unless otherwise stated, evaluated after 13 days
In short: (§1)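 Spray-applied at 1000 g/ha unless stated, in the glasshouse. Damage rated 13 days later on a 0–5 scale.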

[8] = tested on: Amaranthus retoflexus (AMARE); test: Post-emergence herbicidal test; conditions: 1000 g/ha unless otherwise stated, evaluated after 13 days
In short: as §1

[9] = tested on: Echinochloa crus-galli (ECHCG); test: Post-emergence herbicidal test; conditions: 1000 g/ha unless otherwise stated, evaluated after 13 days
In short: as §1

[10] = tested on: Ipomoea hederacea (IPOHE); test: Post-emergence herbicidal test; conditions: 1000 g/ha unless otherwise stated, evaluated after 13 days
In short: as §1

Setaria faberi (SETFA) [11] = test: Post-emergence herbicidal test; conditions: 1000 g/ha unless otherwise stated, evaluated after 13 days
In short: as §1

Zea mays (ZEAMX) [12] = test: Post-emergence herbicidal test; conditions: 1000 g/ha unless otherwise stated, evaluated after 13 days
In short: as §1

| Structure (SMILES) | percentage damage caused to the plant, five-point scale, AMARE [1] | percentage damage caused to the plant, five-point scale, SETFA (Setaria faberi (SETFA) [2]) | percentage damage caused to the plant, five-point scale, ECHCG [3] | percentage damage caused to the plant, five-point scale, IPOHE [4] | percentage damage caused to the plant, five-point scale, ABUTH [5] | percentage damage caused to the plant, five-point scale, ZEAMX (Zea mays (ZEAMX) [6]) | percentage damage caused to the plant, ABUTH (five-point scale) [7] | percentage damage caused to the plant, AMARE (five-point scale) [8] | percentage damage caused to the plant, ECHCG (five-point scale) [9] | percentage damage caused to the plant, IPOHE (five-point scale) [10] | percentage damage caused to the plant, SETFA (five-point scale) (Setaria faberi (SETFA) [11]) | percentage damage caused to the plant, ZEAMX (five-point scale) (Zea mays (ZEAMX) [12]) |
| --- | --- | --- | --- | --- | --- | --- | --- | --- | --- | --- | --- | --- |
| Cc1cc(S(C)(=O)=O)c2c(=O)c(C(=O)O)nn(-c3ccc(OC(F)(F)F)cc3)c2c1 [Compound P7, 7-methyl-5-methylsulfonyl-4-oxo-1-[4-(trifluoromethoxy)phenyl]cinnoline-3-carboxylic acid] | 1 (1=10-20%) | 4 (4=61-80%) | 4 (4=61-80%) | 1 (1=10-20%) | 1 (1=10-20%) | 1 (1=10-20%) | 1 (1=10-20%) | 1 (1=10-20%) | 4 (4=61-80%) | 2 (2=21-40%) | 4 (4=61-80%) | 2 (2=21-40%) |
| CCOC(=O)c1nn(-c2ccc(OC(F)(F)F)cc2)c2ccc(C)c(S(C)(=O)=O)c2c1=O [Compound P8, ethyl 6-methyl-5-methylsulfonyl-4-oxo-1-[4-(trifluoromethoxy)phenyl]cinnoline-3-carboxylic acid] | 1 (1=10-20%) | 4 (4=61-80%) | 3 (3=41-60%) | 1 (1=10-20%) | 1 (1=10-20%) | 1 (1=10-20%) | 1 (1=10-20%) | 1 (1=10-20%) | 4 (4=61-80%) | 1 (1=10-20%) | 4 (4=61-80%) | 1 (1=10-20%) |
| CC(C)COC(=O)c1nn(-c2ccc(OC(F)(F)F)cc2)c2cccc(S(C)(=O)=O)c2c1=O [Compound P72, isobutyl 5-methylsulfonyl-4-oxo-1-[4-(trifluoromethoxy)phenyl]cinnoline-3-carboxylate] | 0 (0=0%) | 4 (4=61-80%) | 4 (4=61-80%) | 0 (0=0%) | 0 (0=0%) | 0 (0=0%) | 0 (0=0%) | 0 (0=0%) | 3 (3=41-60%) | 1 (1=10-20%) | 4 (4=61-80%) | 1 (1=10-20%) |
| CCOC(=O)c1nn(-c2ccc(OC(F)(F)F)cc2)c2cccc(SCC(F)(F)F)c2c1=O [Compound P39, ethyl 4-oxo-5-(2,2,2-trifluoroethylsulfanyl)-1-[4-(trifluoromethoxy)phenyl]cinnoline-3-carboxylate] | 1 (1=10-20%) | 0 (0=0%) | 0 (0=0%) | 0 (0=0%) | 0 (0=0%) | 0 (0=0%) | 1 (1=10-20%) | 0 (0=0%) | 0 (0=0%) | 1 (1=10-20%) | 0 (0=0%) | 1 (1=10-20%) |
| CC(C)(C)CCOC(=O)c1nn(-c2ccc(OC(F)(F)F)cc2)c2cccc(S(C)(=O)=O)c2c1=O [Compound P86, 3,3-dimethylbutyl 5-methylsulfonyl-4-oxo-1-[4-(trifluoromethoxy)phenyl]cinnoline-3-carboxylate] | 0 (0=0%) | 4 (4=61-80%) | 5 (5=81-100%) | 0 (0=0%) | 1 (1=10-20%) | 1 (1=10-20%) | 0 (0=0%) | 0 (0=0%) | 4 (4=61-80%) | 0 (0=0%) | 4 (4=61-80%) | 0 (0=0%) |
| O=C(O)c1nn(-c2ccc(OC(F)(F)F)cc2)c2cccc([S+]([O-])C3CC3)c2c1=O (stereo not drawn) [Compound P31, 5-cyclopropylsulfinyl-4-oxo-1-[4-(trifluoromethoxy)phenyl]cinnoline-3-carboxylic acid] | 0 (0=0%) | 0 (0=0%) | 0 (0=0%) | 0 (0=0%) | 0 (0=0%) | 0 (0=0%) | 0 (0=0%) | 0 (0=0%) | 0 (0=0%) | 0 (0=0%) | 0 (0=0%) | 0 (0=0%) |
| CS(=O)(=O)c1c(F)ccc2c1c(=O)c(C(=O)O)nn2-c1ccc(OC(F)(F)F)cc1 [Compound P20, 6-fluoro-5-methylsulfonyl-4-oxo-1-[4-(trifluoromethoxy)phenyl]cinnoline-3-carboxylic acid] | 0 (0=0%) | 0 (0=0%) | 0 (0=0%) | 0 (0=0%) | 0 (0=0%) | 0 (0=0%) | 0 (0=0%) | 0 (0=0%) | 0 (0=0%) | 0 (0=0%) | 0 (0=0%) | 0 (0=0%) |
| Cc1ccc2c(c1S(C)(=O)=O)c(=O)c(C(=O)O)nn2-c1ccc(OC(F)(F)F)cc1 [Compound P6, 6-methyl-5-methylsulfonyl-4-oxo-1-[4-(trifluoromethoxy)phenyl]cinnoline-3-carboxylic acid] | 1 (1=10-20%) | 4 (4=61-80%) | 3 (3=41-60%) | 1 (1=10-20%) | 2 (2=21-40%) | 1 (1=10-20%) | 1 (1=10-20%) | 2 (2=21-40%) | 4 (4=61-80%) | 1 (1=10-20%) | 3 (3=41-60%) | 1 (1=10-20%) |
| CCSc1cccc2c1c(=O)c(C(=O)O)nn2-c1ccc(OC(F)(F)F)cc1 [Compound P26, 5-ethylsulfanyl-4-oxo-1-[4-(trifluoromethoxy)phenyl]cinnoline-3-carboxylic acid] | 1 (1=10-20%) | 0 (0=0%) | 0 (0=0%) | 0 (0=0%) | 0 (0=0%) | 0 (0=0%) | 1 (1=10-20%) | 0 (0=0%) | 1 (1=10-20%) | 0 (0=0%) | 1 (1=10-20%) | 1 (1=10-20%) |
